Laboratory results taken from publication PMC5833777, “Lup-20(29)-en-3β,28-di-yl-nitrooxy acetate affects MCF-7 proliferation through the crosstalk between apoptosis and autophagy in mitochondria” (Cell Death & Disease, 2018).
Values belong to the compound of their own block, whether it stands above or below them.

Columns and labels:
[1] = tested on: MCF-7 cells; assay: Western blots of MCF-7 cell extracts; assay type: cell-based
Experimental: MCF-7 cells treated with NBT and/or CQ for 24 h were harvested, washed twice with cold PBS, and then fractionated into cytosolic and mitochondrial fractions by using a Qproteome Mitochondria Isolation Kit (Qiagen, Germany) following the manufacturer’s protocol.
MCF-7 cells treated with NBT and/or CQ for 24 h were lysed in cell lysis buffer containing 1% PMFS for 30 min on ice and centrifuged at 12,000 r.p.m. for 5 min at 4 °C. Then, the protein was quantified by using a BCA Protein Assay Kit (BestBio, Shanghai, China).
Total cell extracts (50 μg) were separated by using SDS-PAGE at 120 V for 1.5 h at room temperature and then eletrotransferred onto PVDF membranes at 300 mA for 1 h at 4 °C. The membranes were washed three times with TBST each for 10 min, blocked with 5% nonfat dry milk in TBST for 2 h at room temperature, rinsed with TBST, incubated with primary antibodies overnight at 4 °C, washed three times with TBST, incubated with HRP-linked anti-IgG for 1 h at room temperature, and then washed three times as before. At the same time, β-actin, GAPDH, and tubulin acted as the control. Afterward, the chemiluminescent bands were analyzed using Image Lab™ Software on ChemiDoc XRS + (Bio-Rad, USA).

[2] = tested on: MCF-7 xenograft; assay: In vivo antitumor efficacy on MCF-7 tumor-bearing nude mice (tumor volume, H&E, TUNEL); parameters: species or system female BALB/c nude mice; details: for tumor growth compared with the control: i.p. daily for 11 days, NBT 100 mg/kg, BT 100 mg/kg, 5-FU 22 mg/kg
Text: Representative images are shown at ×400 magnification. Scale bar: 100 μm. Data represent mean ± SD of three independent experiments
Tumor samples were fixed in 10% formalin, paraffinized, and sectioned into 4-μm sections, which were stained with H&E according to standard methods.
Tumor samples were fixed in 10% formalin, paraffinized, and sectioned into 4-μm sections, which were stained with FITC-POD according to standard methods.

[3] = for coefficient of the heart, liver, spleen, and kidney to the body weight: after 11 days of exposure; for body weight changes: during 11 days of exposure; for ALT/GPT / AST/GOT / BUN / CRE / UA: serum, after 11 days i.p., N = 8, mean ± S
[4] = tested on: HeLa; assay: CCK-8 cell proliferation assay, HeLa; assay type: cell-based; details: Homo sapiens, 48 h
Experimental: (§1) Fig. 2 NBT and BT induced cell death in HeLa, A549, and MCF-7 cell lines. a Effects of BT on the proliferation of MCF-7, HeLa, and A549 cells. Cells (5 × 10^3) were seeded in a 96-well plate for 24 h and then treated with increased concentrations of BT for 48 h. The cell viability was evaluated by using CCK-8 assay. b MCF-7, HeLa, and A549 cells (5 × 10^3) were seeded in a 96-well plate for 24 h and were treated with known concentrations of NBT for 48 h. c MCF-7 cells (5 × 10^3) were seeded in a 96-well plate for 24 h and then were treated with known concentrations of NBT for 24 or 48 h. The cell viability was evaluated by using CCK-8 assay. d MCF10A, BEAS-2B, and L-02 cells (5 × 10^3) were seeded in a 96-well plate for 24 h and were treated with 6, 12, and 24 μM concentrations of NBT for 24 or 48 h. The cell viability was evaluated by using CCK-8 assay.
(§2) MCF-7, HeLa, A549, BEAS-2B, MCF10A, and L-02 cell lines were purchased from the American Type Culture Collection (ATCC) (Rockville, Maryland, USA). […]
(§3) Cells were grown in 96-well plates at a density of 5 × 10^3 cells/100 μL for 24 h, and then various concentrations of BT or NBT were added for 24 or 48 h. […] Optical density was measured at 450 nm by using a multimode plate reader (PerkinElmer EnSpire, USA).

[5] = tested on: A549; assay: CCK-8 cell proliferation assay, A549; assay type: cell-based; details: Homo sapiens, 48 h
Experimental: as §1, §2, §3

[6] = tested on: MCF-7; assay: CCK-8 cell proliferation assay, MCF-7; assay type: cell-based; details: Homo sapiens, MCF7, 48 h
Experimental: as §1, §2, §3

[7] = MCF-7, 24 h, NBT 6-24 μM, Rapa 0.25 μM, NBT 12 μM + CQ 40 μM

SMILES: Cn1cnc(N)c2ncnc1-2 [3-MA, 3-methyladenine, reference compound]
effect on NBT-induced caspase-9 and PARP activation ([1]; MCF-7, 3-MA 5 mM with NBT 12 μM, 24 h): inhibit

BUN [3]: 9.26 ± 2.23 mmol/L
CRE [3]: 32.95 ± 6.29 µmol/L
UA [3]: 84.52 ± 6.63 µmol/L
SMILES: O=c1[nH]cc(F)c(=O)[nH]1 [5-FU, 5-fluorouracil]
tumor growth compared with the control [2]: significant reduction in tumor growth
coefficient of the heart, liver, spleen, and kidney to the body weight [3]: no significant differences
body weight changes [3]: no significant differences
ALT/GPT [3]: 95.48 ± 12.86 IU/L
AST/GOT [3]: 245.71 ± 47.15 IU/L

SMILES: C=C(C)[C@@H]1CC[C@]2(CO)CC[C@]3(C)[C@H](CC[C@@H]4[C@@]5(C)CC[C@H](O)C(C)(C)[C@@H]5CC[C@]43C)[C@@H]12 [BT, Betulin]
IC50 [4]: 288 ± 12.3 µM
inhibition at 500 µM [5]: ≤ 40%
inhibition at 500 µM [6]: ≤ 40%
HE staining of tumors ([2]; 100 mg/kg i.p., 11 days): fibrosis, necrosis, and inflammatory cell infiltration
tumor growth compared with the control [2]: minimal reduction in tumor growth
safety after 11 days of administration ([3]; 100 mg/kg i.p., nude mice): safe
coefficient of the heart, liver, spleen, and kidney to the body weight [3]: no significant differences
body weight changes [3]: no significant differences
ALT/GPT [3]: 106.33 ± 24.27 IU/L
AST/GOT [3]: 183.42 ± 39.98 IU/L
BUN [3]: 10.13 ± 3.04 mmol/L
CRE [3]: 45.10 ± 6.43 µmol/L
UA [3]: 130.18 ± 25.22 µmol/L

SMILES: CCN(CC)CCCC(C)Nc1ccnc2cc(Cl)ccc12 (stereo not drawn) [CQ, Chloroquine, reference compound]
p62 level increased by ([1]; MCF-7, 40 μM, 24 h): 75%

SMILES: CO[C@H]1C[C@@H]2CC[C@@H](C)[C@@](O)(O2)C(=O)C(=O)N2CCCC[C@H]2C(=O)O[C@H]([C@H](C)C[C@@H]2CC[C@@H](O)[C@H](OC)C2)CC(=O)[C@H](C)/C=C(\C)[C@@H](O)[C@@H](OC)C(=O)[C@H](C)C[C@H](C)/C=C/C=C/C=C/1C [Rapa, Rapamycin, reference compound]
p62 level reduced by ([1]; MCF-7, 0.25 μM alone, 24 h): 60%
Atg5 level [1, 7]: increased
p62 level [1, 7]: decreased
LC3B-II level ([1]; MCF-7, 24 h, Rapa 0.25 μM, NBT 12 μM + CQ 40 μM): increased
